Measured values from ChEMBL document CHEMBL1201862, “PubChem BioAssay data set” (2004).
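Interpolation was linear, between the two tested concentrations surrounding the appropriate level; five concentrations were tested over 48 hours in 96-well plates. At the GI50, growth is halved.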 Active and inactive are the calls of the source. Cut-off read from the data, not from the text of the source: active = GI50 up to about 1.1 µM and inactive = higher.

Key:
Assay in all cases: DTP human tumour cell line panel, 48 h
[1] = system: MOLT-4
[2] = system: CAKI-1
[3] = system: SF-295
[4] = system: HT-29
[5] = system: NCI-H522
[6] = system: HCT-15
[7] = system: LOX IMVI
[8] = system: UACC-257
[9] = system: SNB-75
[10] = system: U-251
[11] = system: K562
[12] = system: SR
[13] = system: SF-268
[14] = system: SW-620
[15] = system: SK-MEL-2
[16] = system: KM12
[17] = system: IGROV-1
[18] = system: SK-MEL-5
[19] = system: DU-145
[20] = system: BT-549

CCOC(=O)/C(=C/c1cc(OC)ccc1OC)CC(=O)O
GI50 [1]: > 25.7 µM (inactive)
GI50 [2]: > 100 µM (inactive)
GI50 [3]: > 100 µM (inactive)
GI50 [4]: > 94.4 µM (inactive)
GI50 [5]: > 100 µM (inactive)
GI50 [6]: > 43.7 µM
GI50 [7]: > 100 µM (inactive)
GI50 [8]: > 100 µM (inactive)
GI50 [9]: > 100 µM (inactive)
GI50 [10]: > 100 µM (inactive)
GI50 [11]: > 31.6 µM (inactive)
GI50 [12]: > 100 µM (inactive)
GI50 [13]: > 100 µM (inactive)
GI50 [14]: > 100 µM (inactive)
GI50 [15]: 19.5 µM (inactive)
GI50 [16]: > 100 µM (inactive)
GI50 [17]: > 100 µM (inactive)
GI50 [18]: > 100 µM (inactive)

CN(C)C(=S)N1C(=S)N(c2ccccc2)C(=N/c2ccccc2)/C1=N\c1ccccc1
GI50 [1]: > 100 µM (inactive)
GI50 [2]: > 100 µM (inactive)
GI50 [3]: > 100 µM (inactive)
GI50 [19]: > 100 µM (inactive)
GI50 [4]: > 100 µM (inactive)
GI50 [5]: 6.82 µM (inactive)
GI50 [6]: > 100 µM
GI50 [7]: > 100 µM (inactive)
GI50 [8]: > 100 µM (inactive)
GI50 [9]: > 100 µM (inactive)
GI50 [10]: > 100 µM (inactive)
GI50 [11]: > 100 µM (inactive)
GI50 [12]: > 100 µM (inactive)
GI50 [13]: > 100 µM (inactive)
GI50 [14]: > 100 µM (inactive)
GI50 [15]: > 100 µM (inactive)
GI50 [16]: > 100 µM (inactive)
GI50 [17]: > 100 µM (inactive)
GI50 [18]: > 100 µM (inactive)

O=C1NC(=S)NC(=O)C1=Cc1ccc([N+](=O)[O-])o1
GI50 [1]: 19.7 µM (inactive)
GI50 [2]: 19.5 µM (inactive)
GI50 [3]: 78.3 µM (inactive)
GI50 [4]: 23.2 µM (inactive)
GI50 [5]: 19.9 µM (inactive)
GI50 [6]: 17 µM
GI50 [7]: 17.6 µM (inactive)
GI50 [8]: 44.2 µM (inactive)
GI50 [9]: 16.2 µM (inactive)
GI50 [10]: > 100 µM (inactive)
GI50 [11]: 23.9 µM (inactive)
GI50 [12]: 19.6 µM (inactive)
GI50 [13]: 39.8 µM (inactive)
GI50 [14]: 23 µM (inactive)
GI50 [15]: 46.9 µM (inactive)
GI50 [16]: 46.6 µM (inactive)
GI50 [17]: 21.6 µM (inactive)
GI50 [18]: 23.4 µM (inactive)

O=C1CC(c2ccccc2)=Nc2ccccc2N1
GI50 [1]: > 100 µM (inactive)
GI50 [2]: > 100 µM (inactive)
GI50 [3]: > 100 µM (inactive)
GI50 [4]: > 100 µM (inactive)
GI50 [5]: > 100 µM (inactive)
GI50 [6]: > 100 µM
GI50 [7]: 35 µM (inactive)
GI50 [8]: > 100 µM (inactive)
GI50 [9]: > 100 µM (inactive)
GI50 [10]: > 100 µM (inactive)
GI50 [11]: > 100 µM (inactive)
GI50 [12]: > 100 µM (inactive)
GI50 [13]: > 100 µM (inactive)
GI50 [14]: 21.1 µM (inactive)
GI50 [15]: > 100 µM (inactive)
GI50 [16]: > 100 µM (inactive)
GI50 [17]: > 100 µM (inactive)
GI50 [18]: > 100 µM (inactive)

O=C(CC(C(=O)c1cccs1)c1ccsc1)c1ccc(Cl)cc1 (configuration not stated)
GI50 [1]: > 100 µM (inactive)
GI50 [2]: > 100 µM (inactive)
GI50 [3]: > 100 µM (inactive)
GI50 [19]: > 100 µM (inactive)
GI50 [4]: > 100 µM (inactive)
GI50 [6]: > 100 µM
GI50 [7]: > 100 µM (inactive)
GI50 [8]: > 100 µM (inactive)
GI50 [9]: > 100 µM (inactive)
GI50 [10]: > 100 µM (inactive)
GI50 [11]: > 100 µM (inactive)
GI50 [12]: > 100 µM (inactive)
GI50 [13]: > 100 µM (inactive)
GI50 [14]: > 100 µM (inactive)
GI50 [15]: > 100 µM (inactive)
GI50 [16]: > 100 µM (inactive)
GI50 [17]: > 100 µM (inactive)
GI50 [18]: > 100 µM (inactive)

COc1ccc(-c2oc3c(OC)c(OC)c(OC)c(O)c3c(=O)c2OC)cc1O
GI50 [1]: 0.0989 µM (active)
GI50 [2]: 0.557 µM (active)
GI50 [3]: 0.478 µM (active)
GI50 [4]: 8.87 µM (inactive)
GI50 [5]: < 0.01 µM (active)
GI50 [6]: 0.35 µM
GI50 [7]: 0.0935 µM (active)
GI50 [8]: 0.0583 µM (active)
GI50 [9]: 0.0443 µM (active)
GI50 [10]: 0.242 µM (active)
GI50 [11]: < 0.01 µM (active)
GI50 [12]: 0.0702 µM (active)
GI50 [13]: 0.0859 µM (active)
GI50 [14]: 0.038 µM (active)
GI50 [15]: 0.0546 µM (active)
GI50 [16]: 0.556 µM (active)
GI50 [17]: 0.462 µM (active)
GI50 [18]: 0.113 µM (active)

COc1cc(C2C3=C(CCCC3=O)N(c3ccc(C)cc3)C3=C2C(=O)CCC3)c([N+](=O)[O-])cc1OC
GI50 [1]: 24.2 µM (inactive)
GI50 [2]: > 100 µM (inactive)
GI50 [4]: 59.4 µM (inactive)
GI50 [6]: 68.1 µM
GI50 [20]: > 100 µM (inactive)
GI50 [7]: 83.6 µM (inactive)
GI50 [9]: 24.4 µM (inactive)
GI50 [10]: 42 µM (inactive)
GI50 [11]: 79.3 µM (inactive)
GI50 [12]: 54.2 µM (inactive)
GI50 [13]: 97.5 µM (inactive)
GI50 [14]: > 100 µM (inactive)
GI50 [16]: > 100 µM (inactive)
GI50 [17]: > 100 µM (inactive)
GI50 [18]: 64.6 µM (inactive)

Cc1cccc2c(N)c3cccc(C(=O)NCC[N+](C)(C)Cc4ccc(S(C)(=O)=O)cc4)c3nc12
GI50 [1]: 2.02 µM (inactive)
GI50 [2]: 26.1 µM (inactive)
GI50 [3]: 89.1 µM (inactive)
GI50 [19]: 50 µM (inactive)
GI50 [4]: 36.6 µM (inactive)
GI50 [6]: > 100 µM
GI50 [20]: > 100 µM (inactive)
GI50 [7]: 28.8 µM (inactive)
GI50 [8]: > 100 µM (inactive)
GI50 [9]: 10.8 µM (inactive)
GI50 [10]: 45.6 µM (inactive)
GI50 [11]: 10.1 µM (inactive)
GI50 [13]: 25.1 µM (inactive)
GI50 [14]: 56.4 µM (inactive)
GI50 [15]: 98.4 µM (inactive)
GI50 [16]: 64.6 µM (inactive)
GI50 [17]: 27.9 µM (inactive)
GI50 [18]: 70.5 µM (inactive)
